Biological target: PDE1A (Homo sapiens, UniProt P54750)
Assay: PDE1A enzyme inhibition (fluorescence polarization, FAM-cyclic-3',5'-AMP)
Format: biochemical
Settings: for IC50: 15 ng/mL PDE1A, 100 nM FAM-cAMP, 25 °C, 1 h; for PDE1A inhibitory activity compared to vinpocetine (in words) / fold improvement in PDE1A inhibitory activity compared to vinpocetine: relative to vinpocetine
Method: The assays were carried out as described previously. All of the enzymatic reactions were conducted at 25 °C for 1 h. The reaction mixture contains 40 mM MOPS (pH 7.5), 0.5 mM EDTA, 15 mM MgCl2, 0.15 mg/mL BSA, 1 mM DTT, 0.05% Proclin 200, 15 ng/mL PDE1A, and 100 nM FAM-cyclic-3′, 5′-AMP. The compounds were dissolved in 10% DMSO, and 5 μL of the dilution was added to a 50 μL reaction for a final concentration of 1% DMSO in all reactions. The reaction mixture was incubated at 25 °C for 1 h. Then, 100 μL of diluted binding agent was added to each well and incubated at 25 °C for 1 h with slow shaking. The fluorescence polarization of the sample was detected using an excitation filter of 360 nm and an emission filter of 480 nm. The IC50 values were calculated using non-linear regression with a normalized dose–response fit using Prism 6 (GraphPad Software, San Diego, CA, USA).

Chain of PDE1A (P54750 whole entry, species assumed): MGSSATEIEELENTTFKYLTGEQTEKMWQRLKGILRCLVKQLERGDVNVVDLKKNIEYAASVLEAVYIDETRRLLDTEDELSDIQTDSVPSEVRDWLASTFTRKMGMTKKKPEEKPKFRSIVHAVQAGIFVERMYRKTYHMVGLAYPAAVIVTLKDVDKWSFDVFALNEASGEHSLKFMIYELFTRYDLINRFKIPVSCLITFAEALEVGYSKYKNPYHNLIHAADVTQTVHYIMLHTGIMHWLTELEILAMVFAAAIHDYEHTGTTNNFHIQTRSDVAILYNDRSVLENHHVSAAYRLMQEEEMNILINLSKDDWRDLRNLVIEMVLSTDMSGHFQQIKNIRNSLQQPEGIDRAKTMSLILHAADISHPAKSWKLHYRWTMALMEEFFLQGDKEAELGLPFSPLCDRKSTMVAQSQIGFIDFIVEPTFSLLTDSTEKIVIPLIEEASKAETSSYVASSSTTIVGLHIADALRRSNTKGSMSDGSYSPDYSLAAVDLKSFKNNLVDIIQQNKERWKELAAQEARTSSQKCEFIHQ

Compound | IC50 [µM] | PDE1A inhibitory activity compared to vinpocetine (in words) | fold improvement in PDE1A inhibitory activity compared to vinpocetine [fold]
CC[C@@]12C=C(COCc3ccccc3)n3c4c(c5ccccc53)CCN(CCC1)[C@H]42 [Compound 2, (41S,13aS)-12-((benzyloxy)methyl)-13a-ethyl-2,3,41,5,6,13a-hexahydro-1H-indolo[3,2,1-de]pyrido[3,2,1-ij][1,5]naphthyridine] | 19.2 ± 2.25 |  | 
CC[C@@]12C=C(COCc3ccc(C)cc3)n3c4c(c5ccccc53)CCN(CCC1)[C@H]42 [Compound 3, (41S,13aS)-13a-ethyl-12-(((4-methylbenzyl)oxy)methyl)-2,3,41,5,6,13a-hexahydro-1H-indolo[3,2,1-de]pyrido[3,2,1-ij][1,5]naphthyridine] | 8.52 ± 0.68 | superior inhibitory activity compared to vinpocetine | 
CCC12C=C(COCc3cccc(C)c3)n3c4c(c5ccccc53)CCN(CCC1)C42 [Compound 4, (41S,13aS)-13a-ethyl-12-(((3-methylbenzyl)oxy)methyl)-2,3,41,5,6,13a-hexahydro-1H-indolo[3,2,1-de]pyrido[3,2,1-ij][1,5]naphthyridine] | 3.53 ± 0.25 | superior inhibitory activity compared to vinpocetine | 5
CC[C@@]12C=C(COCc3ccc(F)cc3)n3c4c(c5ccccc53)CCN(CCC1)[C@H]42 [Compound 5, (41S,13aS)-13a-ethyl-12-(((4-fluorobenzyl)oxy)methyl)-2,3,41,5,6,13a-hexahydro-1H-indolo[3,2,1-de]pyrido[3,2,1-ij][1,5]naphthyridine] | 17.2 ± 3.75 | superior inhibitory activity compared to vinpocetine | 
CC[C@@]12C=C(COCc3cccc(F)c3)n3c4c(c5ccccc53)CCN(CCC1)[C@H]42 [Compound 6, (41S,13aS)-13a-ethyl-12-(((3-fluorobenzyl)oxy)methyl)-2,3,41,5,6,13a-hexahydro-1H-indolo[3,2,1-de]pyrido[3,2,1-ij][1,5]naphthyridine] | 25.6 ± 1.23 |  | 
CC[C@@]12C=C(COCc3ccccc3F)n3c4c(c5ccccc53)CCN(CCC1)[C@H]42 [Compound 7, (41S,13aS)-13a-ethyl-12-(((2-fluorobenzyl)oxy)methyl)-2,3,41,5,6,13a-hexahydro-1H-indolo[3,2,1-de]pyrido[3,2,1-ij][1,5]naphthyridine] | 28.7 ± 1.15 |  | 
CC[C@@]12C=C(COCc3ccc(Cl)cc3)n3c4c(c5ccccc53)CCN(CCC1)[C@H]42 [Compound 8, (41S,13aS)-12-(((4-chlorobenzyl)oxy)methyl)-13a-ethyl-2,3,41,5,6,13a-hexahydro-1H-indolo[3,2,1-de]pyrido[3,2,1-ij][1,5]naphthyridine] | 48.8 ± 2.55 |  | 
CC[C@@]12C=C(COCc3cccc(Cl)c3)n3c4c(c5ccccc53)CCN(CCC1)[C@H]42 [Compound 9, (41S,13aS)-12-(((3-chlorobenzyl)oxy)methyl)-13a-ethyl-2,3,41,5,6,13a-hexahydro-1H-indolo[3,2,1-de]pyrido[3,2,1-ij][1,5]naphthyridine] | 72.1 ± 3.89 |  | 
CC[C@@]12C=C(COCc3ccccc3Cl)n3c4c(c5ccccc53)CCN(CCC1)[C@H]42 [Compound 10, (41S,13aS)-12-(((2-chlorobenzyl)oxy)methyl)-13a-ethyl-2,3,41,5,6,13a-hexahydro-1H-indolo[3,2,1-de]pyrido[3,2,1-ij][1,5]naphthyridine] | 35 ± 1.85 |  | 
CC[C@@]12C=C(COCc3ccc(Br)cc3)n3c4c(c5ccccc53)CCN(CCC1)[C@H]42 [Compound 11, (41S,13aS)-12-(((4-bromobenzyl)oxy)methyl)-13a-ethyl-2,3,41,5,6,13a-hexahydro-1H-indolo[3,2,1-de]pyrido[3,2,1-ij][1,5]naphthyridine] | 54.8 ± 3.42 |  | 
CC[C@@]12C=C(COCc3cccc(Br)c3)n3c4c(c5ccccc53)CCN(CCC1)[C@H]42 [Compound 12, (41S,13aS)-12-(((3-bromobenzyl)oxy)methyl)-13a-ethyl-2,3,41,5,6,13a-hexahydro-1H-indolo[3,2,1-de]pyrido[3,2,1-ij][1,5]naphthyridine] | 12.5 ± 1.06 | superior inhibitory activity compared to vinpocetine | 
CC[C@@]12C=C(COCc3ccccc3Br)n3c4c(c5ccccc53)CCN(CCC1)[C@H]42 [Compound 13, (41S,13aS)-12-(((2-bromobenzyl)oxy)methyl)-13a-ethyl-2,3,41,5,6,13a-hexahydro-1H-indolo[3,2,1-de]pyrido[3,2,1-ij][1,5]naphthyridine] | 88.3 ± 3.26 |  | 
CC[C@@]12C=C(COCc3ccc(C#N)cc3)n3c4c(c5ccccc53)CCN(CCC1)[C@H]42 [Compound 14, 4-((((41S,13aS)-13a-ethyl-2,3,41,5,6,13a-hexahydro-1H-indolo[3,2,1-de]pyrido[3,2,1-ij][1,5]naphthyridin-12-yl)methoxy)methyl)benzonitrile] | 15.6 ± 1.09 | superior inhibitory activity compared to vinpocetine | 
CC[C@@]12C=C(COCc3ccccc3C#N)n3c4c(c5ccccc53)CCN(CCC1)[C@H]42 [Compound 15, 2-((((41S,13aS)-13a-ethyl-2,3,41,5,6,13a-hexahydro-1H-indolo[3,2,1-de]pyrido[3,2,1-ij][1,5]naphthyridin-12-yl)methoxy)methyl)benzonitrile] | 45.1 ± 2.27 |  | 
CC[C@@]12C=C(COCc3ccc(C(F)(F)F)cc3)n3c4c(c5ccccc53)CCN(CCC1)[C@H]42 [Compound 16, (41S,13aS)-13a-ethyl-12-(((4-(trifluoromethyl)benzyl)oxy)methyl)-2,3,41,5,6,13a-hexahydro-1H-indolo[3,2,1-de]pyrido[3,2,1-ij][1,5]naphthyridine] | 57.7 ± 2.96 |  | 
CC[C@@]12C=C(COCc3cccc(C(F)(F)F)c3)n3c4c(c5ccccc53)CCN(CCC1)[C@H]42 [Compound 17, (41S,13aS)-13a-ethyl-12-(((3-(trifluoromethyl)benzyl)oxy)methyl)-2,3,41,5,6,13a-hexahydro-1H-indolo[3,2,1-de]pyrido[3,2,1-ij][1,5]naphthyridine] | 48.4 ± 1.44 |  | 
CC[C@@]12C=C(COCc3ccc(-c4ccccc4)cc3)n3c4c(c5ccccc53)CCN(CCC1)[C@H]42 [Compound 18, (41S,13aS)-12-(([1,1′-biphenyl]-4-ylmethoxy)methyl)-13a-ethyl-2,3,41,5,6,13a-hexahydro-1H-indolo[3,2,1-de]pyrido[3,2,1-ij][1,5]naphthyridine] | 44.8 ± 2.26 |  | 
CC[C@@]12C=C(COCc3cccc4ccccc34)n3c4c(c5ccccc53)CCN(CCC1)[C@H]42 [Compound 19, (41S,13aS)-13a-ethyl-12-((naphthalen-1-ylmethoxy)methyl)-2,3,41,5,6,13a-hexahydro-1H-indolo[3,2,1-de]pyrido[3,2,1-ij][1,5]naphthyridine] | 54.3 ± 1.84 |  | 
CC[C@@]12C=C(COCc3ccc4ccccc4c3)n3c4c(c5ccccc53)CCN(CCC1)[C@H]42 [Compound 20, (41S,13aS)-13a-ethyl-12-((naphthalen-2-ylmethoxy)methyl)-2,3,41,5,6,13a-hexahydro-1H-indolo[3,2,1-de]pyrido[3,2,1-ij][1,5]naphthyridine] | 89.6 ± 5.34 |  | 
CC[C@@]12C=C(COCc3cc(C)cc(C)c3)n3c4c(c5ccccc53)CCN(CCC1)[C@H]42 [Compound 21, (41S,13aS)-12-(((3,5-dimethylbenzyl)oxy)methyl)-13a-ethyl-2,3,41,5,6,13a-hexahydro-1H-indolo[3,2,1-de]pyrido[3,2,1-ij][1,5]naphthyridine] | 10 ± 0.85 | superior inhibitory activity compared to vinpocetine | 
CC[C@@]12C=C(COCc3cc(F)cc(F)c3)n3c4c(c5ccccc53)CCN(CCC1)[C@H]42 [Compound 22, (41S,13aS)-12-(((3,5-difluorobenzyl)oxy)methyl)-13a-ethyl-2,3,41,5,6,13a-hexahydro-1H-indolo[3,2,1-de]pyrido[3,2,1-ij][1,5]naphthyridine] | 46.4 ± 1.94 |  | 
CC[C@@]12C=C(COCc3cc(Br)cc(Br)c3)n3c4c(c5ccccc53)CCN(CCC1)[C@H]42 [Compound 23, (41S,13aS)-12-(((3,5-dibromobenzyl)oxy)methyl)-13a-ethyl-2,3,41,5,6,13a-hexahydro-1H-indolo[3,2,1-de]pyrido[3,2,1-ij][1,5]naphthyridine] | 58.2 ± 3.2 |  | 
CC[C@@]12C=C(COCc3cc(C)nn3C)n3c4c(c5ccccc53)CCN(CCC1)[C@H]42 [Compound 24, (41S,13aS)-12-(((1,3-dimethyl-1H-pyrazol-5-yl)methoxy)methyl)-13a-ethyl-2,3,41,5,6,13a-hexahydro-1H-indolo[3,2,1-de]pyrido[3,2,1-ij][1,5]naphthyridine] | 63.7 ± 3.85 |  | 
CCC12C=C(COCc3cnc(Cl)s3)n3c4c(c5ccccc53)CCN(CCC1)C42 [Compound 25, 2-chloro-5-((((41S,13aS)-13a-ethyl-2,3,41,5,6,13a-hexahydro-1H-indolo[3,2,1-de]pyrido[3,2,1-ij][1,5]naphthyridin-12-yl)methoxy)methyl)thiazole] | 2.08 ± 0.16 | superior inhibitory activity compared to vinpocetine | 8
CCOC(=O)C1=C[C@]2(CC)CCCN3CCc4c(n1c1ccccc41)[C@@H]32 [Vinpocetine] | 17.3 ± 1.21 |  | 

Reference: paper PMC10779641, “Synthesis and Activity Evaluation of Vinpocetine-Derived Indole Alkaloids” (Molecules, 2023)
